The subject of assay [1] is IGF-1R protein tyrosine kinase. Conditions: Sepp-Lorenzino et al., Abstract, 1994; cited from earlier work.
The test system of assay [2] is human breast cancer cells. Conditions: Sepp-Lorenzino et al., Abstract, 1994; cited from earlier work.
The next assay addresses T1, EGFR (Homo sapiens, UniProt P00533).
T1 construct: expressed in transfected cells; host or cells: NIH3T3 clone C7 (EGFR/C7)
As to the kind of experiment: EGFR Whole Cell Kinase Assay. Format: cell-based. Conditions: EGFR/C7 NIH3T3 cells, EGF 25 nM; quantity and unit inferred; read-out: ELISA DATA, EGFR. The source says:
The following examples illustrates the ability of the exemplary compounds to inhibit receptor tyrosine kinases, such as HER2 and/or EGFR. The following target cells were used for cellular kinase assays: NIH3T3 clone C7 (Honegger et al., supra) engineered to over-express human EGF receptor; NIH3T3 cells engineered to over-express a chimeric receptor containing the EGFR extracellular domain and the HER2 intracellular kinase domain; the human mammary carcinoma line BT474 (ATCC HTB2) expressing HER2; and the human glioblastoma line U1242 that expresses PDGFR-beta. Growth assays were carried out using human mammary epithelial SKBR3 (ATCC HTB30) cells (SKBR3 cells over-express HER2), SKOV3 (ATCC HTB77) human ovarian cancer cell line (SKOV3 cells also over-express HER2), A431 cells (A431 cells over-express EGFR) MCF7 human breast carcinoma cells, MCF7 cells overexpressing the HER2 kinase (MCF7-HER2), NIH3T3 cells, and NIH3T3 cells overexpressing the HER2 kinase (3T3-HER2.
EGFR Whole Cell Kinase Assay
EGFR kinase activity (EGFR-3T3 assay) in whole cells was measured as described below:
1) EGF Ligand: stock concentration=16.5 μM; EGF 201, TOYOBO, Co., Ltd. Japan.
2) 05-101 (UBI) (a monoclonal antibody recognizing an EGFR extracellular domain).
3) Anti-Phosphotyosine antibody (polyclonal) (made according to Fendley et al., Cancer Research 50:1550-1558, 1990). […]
(In general: ELISA stands for enzyme-linked immunosorbent assay.)

T1 sequence (P00533 25-1210): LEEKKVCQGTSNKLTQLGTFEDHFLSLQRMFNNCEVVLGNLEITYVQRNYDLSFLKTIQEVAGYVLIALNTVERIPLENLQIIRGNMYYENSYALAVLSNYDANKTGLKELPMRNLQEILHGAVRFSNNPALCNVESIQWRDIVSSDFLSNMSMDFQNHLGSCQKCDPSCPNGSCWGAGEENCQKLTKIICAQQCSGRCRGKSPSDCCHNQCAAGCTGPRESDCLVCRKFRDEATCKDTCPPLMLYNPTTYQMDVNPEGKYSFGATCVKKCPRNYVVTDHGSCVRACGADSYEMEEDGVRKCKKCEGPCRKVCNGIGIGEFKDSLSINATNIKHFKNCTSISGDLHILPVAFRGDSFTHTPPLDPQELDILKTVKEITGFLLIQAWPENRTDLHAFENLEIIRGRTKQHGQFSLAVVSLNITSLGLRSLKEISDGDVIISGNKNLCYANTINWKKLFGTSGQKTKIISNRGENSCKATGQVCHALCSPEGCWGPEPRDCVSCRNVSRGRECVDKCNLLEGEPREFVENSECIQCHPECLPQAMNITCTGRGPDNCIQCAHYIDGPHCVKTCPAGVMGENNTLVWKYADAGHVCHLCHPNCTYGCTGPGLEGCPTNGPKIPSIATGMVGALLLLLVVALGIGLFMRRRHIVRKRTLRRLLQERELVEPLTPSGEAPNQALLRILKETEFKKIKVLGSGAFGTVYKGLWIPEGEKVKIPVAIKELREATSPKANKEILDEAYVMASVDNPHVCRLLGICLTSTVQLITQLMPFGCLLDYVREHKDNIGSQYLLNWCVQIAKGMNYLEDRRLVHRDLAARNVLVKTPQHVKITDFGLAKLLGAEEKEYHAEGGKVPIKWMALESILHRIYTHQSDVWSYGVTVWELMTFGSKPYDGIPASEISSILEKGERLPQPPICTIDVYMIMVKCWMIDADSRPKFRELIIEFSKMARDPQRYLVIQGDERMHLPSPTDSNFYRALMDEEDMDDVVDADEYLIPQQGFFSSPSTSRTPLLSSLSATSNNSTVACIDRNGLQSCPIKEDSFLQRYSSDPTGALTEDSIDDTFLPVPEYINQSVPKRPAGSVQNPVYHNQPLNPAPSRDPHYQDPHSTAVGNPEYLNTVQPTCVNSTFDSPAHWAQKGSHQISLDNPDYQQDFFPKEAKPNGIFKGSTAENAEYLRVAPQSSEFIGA

As to `COC1C=CC=C(C)C(=O)NC2=CC(=O)C=C(C2=O)C(OC)C(C)CC(OC)C(OC)C(C)C=C(C)C1OC(N)=O` (stereo not shown) [Herbimycin A], the “said to inhibit the IGF-1R protein tyrosine kinase” value in assay [1] is listed as “inhibit”. The “said to inhibit cellular proliferation in human breast cancer cells” value in assay [2] was “inhibit”. As for `N#C/C(=C\c1ccc([N+](=O)[O-])s1)S(=O)(=O)c1ccccc1` [Example G771, (E)-3-(2-nitrothien-5-yl)-2-phenylsulfonylacrylonitrile], at EGFR, the IC50 was greater than 100 µM.

Take `N#C/C(=C\c1ccc([N+](=O)[O-])s1)S(=O)(=O)c1ccccn1` [Example G772, (E)-3-(2-nitrothien-5-yl)-2-[(pyridin-2-yl)sulfonyl]acrylonitrile]: on EGFR, the IC50 is greater than 100 µM.

The record behind these values is patent US5710173A, “Thienyl compounds for inhibition of cell proliferative disorders” (Sugen, Inc., priority 1995, dated 1998).
